Laboratory results from patent publication EP2396329B1, “COMPOUNDS FOR THE TREATMENT OF HEPATITIS C” (priority 2009, dated 2010).
pEC50, pIC50: −log10 of the molar value.

test system: HCV replicon; experiment: HCV replicon assay (FRET or luciferase readout); type: cell-based; conditions: Hepatitis C virus
From the text: FRET Assay Preparation. To perform the HCV FRET screening assay, 96-well cell culture plates were used. The FRET peptide (Anaspec, Inc.) (Taliani et al., Anal. Biochem. 1996, 240, 60-67) contains a fluorescence donor, EDANS, near one end of the peptide and an acceptor, DABCYL, near the other end. The fluorescence of the peptide is quenched by […] resonance energy transfer (RET) between the donor and the acceptor, but as the NS3 protease cleaves the peptide the products are released from RET quenching and the fluorescence of the donor becomes apparent. The assay reagent was made as follows: 5X cell Luciferase cell culture lysis reagent from Promega (#E153A) diluted to 1X with dH2O, NaCl added to 150 mM final, the FRET peptide diluted to 20 µM final from a 2 mM stock.
To prepare plates, HCV replicon cells, with or without a Renilla luciferase reporter gene, were trypsinized and placed into each well of a 96-well plate with titrated test compounds added in columns 3 through 12; columns 1 and 2 contained a control compound (HCV protease inhibitor), and the bottom row contained cells without compound. The plates were then placed in a CO2 incubator at 37 °C.
Assays. Subsequent to addition of the test compounds described above (FRET Assay Preparation), at various times the plate was removed and Alamar blue solution (Trek Diagnostics, #00-100) was added per well as a measure of cellular toxicity. After reading in a Cytoflour 4000 instrument (PE Biosystems), plates were rinsed with PBS and then used for FRET assay by the addition of 30 ul of the FRET peptide assay reagent described above (FRET Assay Preparation) per well. The plate was then placed into the Cytoflour 4000 instrument which had been set to 340 excite/490 emission, automatic mode for 20 cycles and the plate read in a kinetic mode. Typically, the signal to noise using an endpoint analysis after the reads was at least three-fold. Alternatively, after Alamar blue reading, plates were rinsed with PBS, 50 ul of DMEM (high glucose) without phenol red was added and plates were then used for luciferase assay using the Promega Dual-Glo Luciferase Assay System.
Compound analysis was determined by quantification of the relative HCV replicon inhibition and the relative cytotoxicity values. To calculate cytoxicity values, the average Alamar Blue fluorescence signals from the control wells were set as 100% non-toxic. The individual signals in each of the compound test wells were then divided by the average control signal and multiplied by 100% to determine […]. To calculate the HCV replicon inhibition values, an average background value was obtained from the two wells containing the highest amount of HCV protease inhibitor at the end of the assay period. These numbers were similar to those obtained from naïve Huh-7 cells.
The background numbers were then subtracted from the average signal obtained from the control wells and this number was used as 100% activity. The individual signals in each of the compound test wells were then divided by the averaged control values after background subtraction and multiplied by 100% to determine percent activity. EC50 values for a protease inhibitor titration were calculated as the concentration which caused a 50% reduction in FRET or luciferase activity. The two numbers generated for the compound plate, percent cytoxicity and percent activity were used to determine compounds of interest for further analysis.

| Compound | pEC50 |
| --- | --- |
| CCn1nc(C)c(C(=O)N2CC3CCC(C2)N3C)c1C1=Cc2cc(OC)ccc2-c2c(C3CCCCC3)c3ccc(C(=O)NS(=O)(=O)C(C)C)cc3n2C1 | 6.30 to 9.00 |
| CCn1nc(C)c(C(=O)N2C3CCCC2COC3)c1C1=Cc2cc(OC)ccc2-c2c(C3CCCCC3)c3ccc(C(=O)NS(=O)(=O)C(C)C)cc3n2C1 | 6.30 to 9.00 |
| COc1ccc2c(c1)C=C(c1c(C(=O)N3C4CCC3CN(C)C4)ncn1C(C)C)Cn1c-2c(C2CCCCC2)c2ccc(C(=O)NS(=O)(=O)C(C)C)cc21 | 6.30 to 9.00 |
| COc1ccc2c(c1)C=C(c1c(C(=O)N3C4CCC3CN(C)C4)nnn1C(C)C)Cn1c-2c(C2CCCCC2)c2ccc(C(=O)NS(=O)(=O)N(C)C)cc21 | 6.30 to 9.00 |

same assay, conditions: Hepatitis C virus; HCV replicon cells; FRET or luciferase activity; read-out: EC50

| Compound | pEC50 |
| --- | --- |
| CCn1nc(C)c(C2=Cc3cc(OC)ccc3-c3c(C4CCCCC4)c4ccc(C(=O)NS(=O)(=O)C(C)C)cc4n3C2)c1C(=O)N1C[C@@H](C)O[C@H](C)C1 | 6.30 to 9.00 |
| CCn1nc(C)c(C2=Cc3cc(OC)ccc3-c3c(C4CCCCC4)c4ccc(C(=O)NS(=O)(=O)C(C)C)cc4n3C2)c1C(=O)N1CCN(C)CC1 | 6.30 to 9.00 |
| CCn1nc(C)c(C2=Cc3cc(OC)ccc3-c3c(C4CCCCC4)c4ccc(C(=O)NS(=O)(=O)C(C)C)cc4n3C2)c1C(=O)N1C[C@@H](C)N(C)[C@@H](C)C1 | 6.30 to 9.00 |
| CCn1ncc(C(=O)N2C[C@@H](C)N(C)[C@@H](C)C2)c1C1=Cc2cc(OC)ccc2-c2c(C3CCCCC3)c3ccc(C(=O)NS(=O)(=O)C(C)C)cc3n2C1 | 6.30 to 9.00 |
| COc1ccc2c(c1)C=C(c1c(C(=O)N3CCN(C)CC3)cnn1CC(F)(F)F)Cn1c-2c(C2CCCCC2)c2ccc(C(=O)NS(=O)(=O)C(C)C)cc21 | 6.30 to 9.00 |
| COc1ccc2c(c1)C=C(c1c(C(=O)N3CCN(C)CC3)cnn1C(C)C)Cn1c-2c(C2CCCCC2)c2ccc(C(=O)NS(=O)(=O)C(C)C)cc21 | 6.30 to 9.00 |
| CCn1nc(C)c(C(=O)N2C[C@@H](C)N(C)[C@@H](C)C2)c1C1=Cc2cc(OC)ccc2-c2c(C3CCCCC3)c3ccc(C(=O)NS(=O)(=O)C(C)C)cc3n2C1 | 6.30 to 9.00 |
| CCn1nc(C)c(C(=O)N2CCO[C@H](COC)C2)c1C1=Cc2cc(OC)ccc2-c2c(C3CCCCC3)c3ccc(C(=O)NS(=O)(=O)C(C)C)cc3n2C1 | 6.30 to 9.00 |
| COc1ccc2c(c1)C=C(c1nn(C(C)C)c(C)c1C(=O)N1C[C@@H](C)O[C@@H](C)C1)Cn1c-2c(C2CCCCC2)c2ccc(C(=O)NS(=O)(=O)C(C)C)cc21 [drawing 151] | 6.30 to 9.00 |

target: T1, HCV NS5B (Hepatitis C virus genotype 1b, UniProt Q9WMX2); experiment: HCV NS5B RdRp enzyme assay (standard or modified); type: biochemical; conditions: not given
T1 construct: The protein was expressed with an 18 amino acid C-terminal truncation to enhance the solubility; made in house; host or cells: E. coli BL21(DE3)
T1 sequence (Q9WMX2 2420-2992): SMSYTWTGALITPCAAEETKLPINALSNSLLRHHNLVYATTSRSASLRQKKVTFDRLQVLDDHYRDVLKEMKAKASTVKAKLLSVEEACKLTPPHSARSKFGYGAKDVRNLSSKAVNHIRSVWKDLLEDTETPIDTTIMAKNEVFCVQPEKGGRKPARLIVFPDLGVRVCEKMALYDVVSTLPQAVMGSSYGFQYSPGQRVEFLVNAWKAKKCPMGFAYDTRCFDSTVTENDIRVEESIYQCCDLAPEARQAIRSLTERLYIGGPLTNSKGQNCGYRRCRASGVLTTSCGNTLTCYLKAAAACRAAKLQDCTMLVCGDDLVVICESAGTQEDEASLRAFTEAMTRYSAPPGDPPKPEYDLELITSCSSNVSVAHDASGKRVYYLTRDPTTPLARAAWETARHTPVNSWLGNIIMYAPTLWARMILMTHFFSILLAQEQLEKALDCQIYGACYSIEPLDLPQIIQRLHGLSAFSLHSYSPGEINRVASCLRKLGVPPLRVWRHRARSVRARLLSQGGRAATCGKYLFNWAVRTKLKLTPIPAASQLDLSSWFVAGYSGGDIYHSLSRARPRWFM
Protocol: HCV NS5B RdRp cloning, expression, and purification. The cDNA encoding the NS5B protein of HCV, genotype 1b, was cloned into the pET21a expression vector. The protein was expressed with an 18 amino acid C-terminal truncation to enhance the solubility. The E. coli competent cell line BL21(DE3) was used for expression of the protein. Cultures were grown at 37 °C for ~ 4 hours until the cultures reached an optical density of 2.0 at 600 nm. The cultures were cooled to 20 °C and induced with I mM IPTG. Fresh ampicillin was added to a final concentration of 50 µg/ml and the cells were grown overnight at 20 °C.
Cell pellets (3L) were lysed for purification to yield 15-24 mgs of purified NS5B. The lysis buffer consisted of 20 mM Tris-HCl, pH 7.4, 500 mM NaCl, 0.5% triton X-100, 1 mM DTT, 1mM EDTA, 20% glycerol, 0.5 mg/ml lysozyme, 10 mM MgCl2, 15 ug/ml deoxyribonuclease I, and Complete TM protease inhibitor tablets (Roche). After addition of the lysis buffer, frozen cell pellets were resuspended using a tissue homogenizer. To reduce the viscosity of the sample, aliquots of the lysate were sonicated on ice using a microtip attached to a Branson sonicator. The sonicated lysate was centrifuged at 100,000 x g for 1hr at 4 °C and filtered through a 0.2 µm filter unit (Corning).
The protein was purified using three sequential chromatography steps: Heparin sepharose CL-6B, polyU sepharose 4B, and Hitrap SP sepharose (Pharmacia). The chromatography buffers were identical to the lysis buffer but contained no lysozyme, deoxyribonuclease I, MgCl2 or protease inhibitor and the NaCl concentration of the buffer was adjusted according to the requirements for charging the protein onto the column. Each column was eluted with a NaCl gradient which varied in length from 5-50 column volumes depending on the column type. After the final chromatography step, the resulting purity of the enzyme is >90% based on SDS-PAGE analysis. The enzyme was aliquoted and stored at -80 °C.
Standard HCV NS5B RdRp enzyme assay. HCV RdRp genotype 1b assays were run in a final volume of 60 µl in 96 well plates (Costar 3912). The assay buffer is composed of 20 mM Hepes, pH 7.5, 2.5 mM KCI, 2.5 mM MgCl2, 1 mM DTT, 1.6 U RNAse inhibitor (Promega N2515), 0.1 mg/ml BSA (Promega R3961), and 2 % glycerol. All compounds were serially diluted (3-fold) in DMSO and diluted further in water such that the final concentration of DMSO in the assay was 2%. HCV RdRp genotype Ib enzyme was used at a final concentration of 28 nM. A polyA template was used at.6 nM, and a biotinylated oligo-dT12 primer was used at 180 nM final concentration. Template was obtained commercially (Amersham 27-4110). Biotinylated primer was prepared by Sigma Genosys. 3H-UTP was used at 0.6 µCi (0.29 µM total UTP). Reactions were initiated by the addition of enzyme, incubated at 30 °C for 60 min, and stopped by adding 25 µl of 50 mM EDTA containing SPA beads (4 µg/µl, Amersham RPNQ 0007). Plates were read on a Packard Top Count NXT after > 1hr incubation at room temperature.
Modified HCV NS5B RdRp enzyme assay. A modified enzyme assay was performed essentially as described for the standard enzyme assay except for the following: The biotinylated oligo dT12 primer was precaptured on streptavidin-coated SPA beads by mixing primer and beads in assay buffer and incubating at room temperature for one hour. Unbound primer was removed after centrifugation. The primer-bound beads were resuspended in 20 mM Hepes buffer, pH 7.5 and used in the assay at final concentrations of 20 nM primer and 0.67 µg/µl beads. Order of addition in the assay: enzyme (14 nM) was added to diluted compound followed by the addition of a mixture of template (0.2 nM), 3H-UTP (0.6 µCi, 0.29 µM), and primer-bound beads, to initiate the reaction; concentrations given are final. Reactions were allowed to proceed for 4 hours at 30° C.
IC50 values for compounds were determined using seven different [I]. […]

| Compound | pIC50 |
| --- | --- |
| CCn1nc(C)c(C(=O)N2C3CCCC2COC3)c1C1=Cc2cc(OC)ccc2-c2c(C3CCCCC3)c3ccc(C(=O)NS(=O)(=O)C(C)C)cc3n2C1 | 6.30 to 9.00 |
| COc1ccc2c(c1)C=C(c1c(C(=O)N3C4CCC3CN(C)C4)ncn1C(C)C)Cn1c-2c(C2CCCCC2)c2ccc(C(=O)NS(=O)(=O)C(C)C)cc21 | 6.30 to 9.00 |
| COc1ccc2c(c1)C=C(c1c(C(=O)N3C4CCC3CN(C)C4)nnn1C(C)C)Cn1c-2c(C2CCCCC2)c2ccc(C(=O)NS(=O)(=O)N(C)C)cc21 | 6.30 to 9.00 |

same assay, conditions: HCV NS5B RdRp enzyme, genotype 1b; read-out: IC50

| Compound | pIC50 |
| --- | --- |
| CCn1nc(C)c(C2=Cc3cc(OC)ccc3-c3c(C4CCCCC4)c4ccc(C(=O)NS(=O)(=O)C(C)C)cc4n3C2)c1C(=O)N1C[C@@H](C)O[C@H](C)C1 | 6.30 to 9.00 |
| CCn1nc(C)c(C2=Cc3cc(OC)ccc3-c3c(C4CCCCC4)c4ccc(C(=O)NS(=O)(=O)C(C)C)cc4n3C2)c1C(=O)N1CCN(C)CC1 | 6.30 to 9.00 |
| CCn1nc(C)c(C2=Cc3cc(OC)ccc3-c3c(C4CCCCC4)c4ccc(C(=O)NS(=O)(=O)C(C)C)cc4n3C2)c1C(=O)N1C[C@@H](C)N(C)[C@@H](C)C1 | 6.30 to 9.00 |
| CCn1ncc(C(=O)N2C[C@@H](C)N(C)[C@@H](C)C2)c1C1=Cc2cc(OC)ccc2-c2c(C3CCCCC3)c3ccc(C(=O)NS(=O)(=O)C(C)C)cc3n2C1 | 6.30 to 9.00 |
| COc1ccc2c(c1)C=C(c1c(C(=O)N3CCN(C)CC3)cnn1CC(F)(F)F)Cn1c-2c(C2CCCCC2)c2ccc(C(=O)NS(=O)(=O)C(C)C)cc21 | 6.30 to 9.00 |
| COc1ccc2c(c1)C=C(c1c(C(=O)N3CCN(C)CC3)cnn1C(C)C)Cn1c-2c(C2CCCCC2)c2ccc(C(=O)NS(=O)(=O)C(C)C)cc21 | 6.30 to 9.00 |
